Laboratory results taken from US20040082815A1, “Benzophenones, the production thereof and their use for controlling plant pathogenic fungi” (priority 2001, published 2004).

System: Erysiphe graminis forma specialis tritici
Experiment: Activity against powdery mildew of wheat, protective spray test on wheat seedlings cv. Kanzler
Format: in vivo, Erysiphe graminis forma specialis tritici (on wheat)
Conditions: sprayed to runoff 24 h before inoculation, rated visually after 7 days, untreated plants 90% disease
Experimental: The active ingredients, separately or jointly, were prepared as a 10% strength emulsion in a mixture of 70% by weight of cyclohexanone, 20% by weight of Nekanil® LN (Lutensol® AP6, wetter with emulsifying and dispersing action based on ethoxylated alkylphenols) and 10% by weight of Wettol® EM (nonionic emulsifier based on ethoxylated castor oil) and diluted with water to give the desired concentration.
Use Example 1—Activity Against Powdery Mildew of Wheat (Erysiphe graminis f. sp. […] f. sp. tritici)
Leaves of wheat seedlings cv. “Kanzler” which have grown in pots were sprayed to runoff point with aqueous preparation of active ingredient made with a stock solution composed of 10% of active ingredient, 63% of cyclohexanone and 27% of emulsifier, and, 24 hours after the spray coating had dried on, dusted with spores of powdery mildew of wheat (Erysiphe graminis forma specialis tritici). The test plants were subsequently placed in a greenhouse at temperatures between 20 and 24° C. and a relative atmospheric humidity of 60 to 90%. After 7 days, the extent of the mildew development was determined visually in % disease of the total leaf area.

Row | SMILES | extent of mildew development, % disease of the total leaf area (4 ppm) | extent of mildew development, % disease of the total leaf area (16 ppm)
1 | COc1cc(C)c(C(=O)c2c(F)ccc(F)c2C)c(OC)c1OC [I.5-02, 2,5-Difluoro-2′,6-dimethyl-4′,5′,6′-trimethoxybenzophenone] | 1% | no disease
2 | COc1cc(C)c(C(=O)c2c(Cl)ccc(Cl)c2C)c(OC)c1OC [I.1-02, 2,5-Dichloro-2′,6-dimethyl-4′,5′,6′-trimethoxybenzophenone] | no disease | no disease
